Data: US20250143307A1 (priority 2021, published 2025)

Assays:
[1] = Manual friction / abrasion resistance of electrostatically sprayed coatings on glass slides; assay type: physicochemical; settings: glass slide
Description: A glass slide was treated according to the following protocol: • 1) The surface was prepared by cleaning with isopropanol, and allowed to dry; • 2) The sprayer was held about 1 m from the target surface. • 3) The titanium anatase phase in aqueous solution (a mixture of peroxotitanic acid and peroxo-modified anatase sol 0.8%) was sprayed onto the surface using an electrostatic sprayer to form a coating on the target surface. • 4) The surface was allowed to dry for 5 to 10 minutes. • 5) The electrostatic sprayer was rinsed with distilled water. • 6) The biocidal polymer coating solution was added to the sprayer tank. • 7) The biocidal polymer coating solution was sprayed onto the surface at a 1 m distance away from the surface. • 8) The surface was examined to ensure it was not over-saturated with coating solution. • 9) The surface was allowed to dry for several hours.
A second glass slide was treated according to the protocol described above, except the surface was coated with the biocidal polymer solution first, followed by the titanium anatase phase.
In both methods, it was observed that the coating resisted repeated manual friction (over 20 cycles) using both wetted and dry paper towel, cotton-based cloth, and polyester/polypropylene wipes.
Treated and control glass slides were transferred to a 1% fluorescein solution for 10 minutes. […]

[2] = Surface charge determination by fluorescein test; assay type: physicochemical; settings: activated glass coverslips, spin-coated, baked at 110° C. for 60 minutes
Description: Surface cationic density (N^+/cm^2) was calculated using UV/Vis absorbance of fluorescein. Fluorescein dye molecules (negatively charged) strongly bind to quaternary amino groups (positively charged) belonging to the polymeric chain. The stoichiometry of fluorescein binding is estimated at one dye molecule per four quaternary ammonium moieties. Treated plates were placed in a 1% fluorescein aqueous solution for five minutes, and then rinsed and sonicated in distilled water for several minutes in order to remove physisorbed fluorescein. Plates were rinsed with distilled water and immersed in 3 mL of CTAB 0.5% (aqueous solution of cetyltrimehylammonium bromide) along with PBS (Phosphate-Buffered Saline) (90% CTAB/10% PBS) and sonicated for 10 minutes. The optical density of chemisorbed fluorescein was measured at 501 nm wavelength.

SMILES	resistance of coating to repeated manual friction ([1]; sprayed with titanium anatase 0.8%, wetted and dry paper towel, cotton cloth, polyester/polypropylene wipes)	abrasion resistance by fluorescein test after manual friction ([1]; titanium anatase sprayed first, then the coating solution)	Calculated surface cationic density [2]
CCCCCCCCCCCCCCCCCC[N+](C)(C)CCC[Si](OC)(OC)OC.[Cl-] [octadecyldimethyl(3-trimethoxysilylpropyl)ammonium chloride]	did not resist manual friction	did not resist minor abrasion	–
CCCCCCCCCCCCCCCCCC[N+](C)(C)CC(=O)c1ccc(O)c(O)c1	–	–	4×10^14 cations/cm^2
